According to patent US11773421B2, “Method for producing fructose-6-phosphate from dihydroxy acetone phosphate and glyceraldehyde-3-phosphate” (Global Bioenergies, priority 2018, dated 2023):

What was measured:
[1] = target: fructose bisphosphatase (Escherichia coli, UniProt P0A993); test: Impact of AMP concentration on fructose bisphosphatase activity; format: biochemical; conditions: AMP several concentrations; 1 mM F1,6bisP, 0.2 mg/ml FBP enzyme, 30° C., NADPH formation at 340 nm; FIG. 1
Method: (§1) A series of tests was conducted in order to determine if AMP has an inhibitory effect on the enzymatic activity of fructose-6-phosphate aldolase and/or fructose bisphosphatase. […] Chem Cat Chem, Wiley, 7:1871-1879 (2015).

[2] = target: T1, FsaA A129S (Escherichia coli, UniProt P78055, A129S); test: Impact of AMP concentration on fructose-6-phosphate aldolase activity of FsaA A129S; format: biochemical, E. coli; conditions: AMP several concentrations; 200 mM DHA, 3 mM D,L-G3P, 0.4 mg/ml FsaA A129S, 30° C., NADPH formation at 340 nm; FIG. 2
T1 construct: made in house; host or cells: E. coli BL21(DE3), ASKA collection plasmid
T1 sequence (P78055 whole entry A129S): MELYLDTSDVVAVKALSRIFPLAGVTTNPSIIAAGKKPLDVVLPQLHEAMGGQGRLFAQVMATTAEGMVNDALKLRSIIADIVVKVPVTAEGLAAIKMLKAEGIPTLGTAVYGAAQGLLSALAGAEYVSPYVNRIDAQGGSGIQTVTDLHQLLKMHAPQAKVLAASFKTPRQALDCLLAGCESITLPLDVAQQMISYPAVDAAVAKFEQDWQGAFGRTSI
Method: as §1

Sequence of fructose bisphosphatase (P0A993 whole entry): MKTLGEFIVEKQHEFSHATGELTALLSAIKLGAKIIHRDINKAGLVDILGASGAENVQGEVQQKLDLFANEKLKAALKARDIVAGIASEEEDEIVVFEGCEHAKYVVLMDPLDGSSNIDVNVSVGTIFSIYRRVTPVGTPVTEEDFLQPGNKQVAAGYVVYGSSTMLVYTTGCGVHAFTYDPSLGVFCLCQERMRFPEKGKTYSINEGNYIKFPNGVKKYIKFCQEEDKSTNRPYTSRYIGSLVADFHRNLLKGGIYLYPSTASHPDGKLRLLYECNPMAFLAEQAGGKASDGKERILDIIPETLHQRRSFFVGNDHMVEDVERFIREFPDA

Nc1ncnc2c1ncn2[C@@H]1O[C@H](COP(=O)(O)O)[C@@H](O)[C@H]1O [AMP]
impact of AMP on fructose bisphosphatase activity [1]: strong inhibitory impact | inhibitory effect of AMP on fructose-6-phosphate aldolase activity [2]: No inhibitory effect
